“Also recorded” adds a separate entry of the source. Each block holds one molecule with its values, some of them ahead of it.
Columns and labels:
[1] = molecular target: T1, inositol monophosphatase (EC 3.1.3.25) (Bos taurus, UniProt P20456); assay: inhibition of inositol monophosphatase (IMPase, EC 3.1.3.25); phosphate liberated from 4 mM 2-glycerolphosphate, molybdate coloration; type: biochemical, animal; details: for IC50: Table 1, pH 7.5, 4 mM 2-glycerolphosphate, 5 ug/ml IMPase, 30 minutes, read-out: IC50 (amount of inhibitor required to inhibit the enzyme activity by 50%) (converted)
T1 construct: host or cells: animal brain or recombinant E. coli expressing animal IMPase
T1 sequence (P20456 1-277): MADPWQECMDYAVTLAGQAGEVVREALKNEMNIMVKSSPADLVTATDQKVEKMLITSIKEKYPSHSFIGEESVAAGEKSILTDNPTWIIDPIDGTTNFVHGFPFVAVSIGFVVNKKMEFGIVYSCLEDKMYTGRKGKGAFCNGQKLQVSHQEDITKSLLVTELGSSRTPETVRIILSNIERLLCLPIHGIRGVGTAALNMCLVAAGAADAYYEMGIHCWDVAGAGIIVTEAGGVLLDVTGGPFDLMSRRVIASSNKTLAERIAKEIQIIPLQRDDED
Description: For determining said activity, IMPase with a purity higher than 90% as judged by SDS-PAGE (sodium dodecyl sulphate polyacrylamide gel electrophoresis) is purified as described in P. D. Pelton and A. J.
Ganzhorn, Journal Biolog. Chem., 267, 1992, pp. 5916-5920. The enzyme can be purified from animal brain or from recombinant E. coli strains expressing animal IMPase. Although crude enzyme preparations can also be used it is preferable to use purified enzyme. The purified enzyme routinely has a specific activity of 25 μmol of Pi/min/mg of protein as determined in a standard assay (P. V. Attwood et al., Biochem. Jour., 1988, 253, pp. 387-394) with 4 mH 2-glycerolphosphate as substrate.
The enzyme activity may be determined according to A. J. Ganzhorn and M. C. Chanal, Biochem., 1990, 29; the reaction mixture contains 50mM Tris-HCl, pH 7.5, 2 mM magnesium chloride and 0.1 mM EGTA. Then, 5 ug/ml of IMPase and 4 mM of 2-glycerolphosphate substrate are added to the reaction mixture; alternatively, it is also possible to add the substrate directly into the reaction mixture, before adding the enzyme.
The reaction is considered terminated after 30 minutes from the addition of the substrate or the enzyme (depending on which one is added later); the liberated phosphate is determined by molybdate coloration (P. V. Attwood et al., Biochem. Jour., 1988, 253, pp. 387-394) at 350 nm with a Shimadzu spectrophotometer UV 2100.
The enzyme reaction is performed either in the absence or in the presence of various concentrations of 6'β-Stachybotrydial or MDL63394 to determine the amount of inhibitor required to inhibit the enzyme activity by 50% (IC50); the results are reported in Table 1, compared with the activity of L-671,776.

complement system = details: literature statement; cited from earlier work
inositol monophosphatase = details: literature statement; cited from earlier work
[2] = test system: manic symptoms / bipolar disorder; details: cited from earlier work
[3] = cited from earlier work

IC50 [1]: 64.7 µM | inhibitory activity against the enzyme inositol monophosphatase ([1]; qualitative statement): show inhibitory activity
Molecule: C[C@@H]1CCC2C(C)(C)[C@@H](O)CC[C@]2(C)[C@@]12Cc1c(O)cc(C=O)c(C=O)c1O2 (stereo partly drawn) [6'β-Stachybotrydial]

Molecule: C[C@@H]1CCC2C(C)(C)[C@H](O)C(O)C[C@]2(C)[C@@]12Cc1c(O)cc(C=O)c(C=O)c1O2 (stereo partly shown) [K-76]
inhibitor of the complement system (complement system): inhibitor of the complement system

IC50 [1]: 463 µM
Molecule: CC1CCC2C(C)(C)C(O)CCC2(C)C12Cc1c(O)cc(CO)c(C=O)c1O2 [L-671,776]
IMPase-inhibiting activity (inositol monophosphatase): shows the above IMPase-inhibiting activity

Molecule: lithium
IMPase-inhibiting activity (inositol monophosphatase): inhibits the activity of said enzyme | time to exert antimanic effect ([2]; acute bipolar disorder): 7 to 10 days | antimanic / prophylactic effect ([2]; manic patients): highly specific in alleviating manic symptoms; also recorded: clear prophylaxis against disease recurrences and deterioration has been demonstrated | adverse effects ([3]; lithium therapy): can cause a transient leukocytosis, can cause patients with a borderline thyroid reserve to become clinically hypothyroid, and can decompensate cardiac status due to shifts in fluids and electrolytes; also recorded: Structural lesions in kidney, such as interstitial fibrosis, tubular atrophy and glomerular sclerosis; also recorded: tremor, weight gain, diarrhea and skin rash | occurrence of polyuria-polydipsia syndrome ([3]; treated patients): up to 60%
